Where a name gives a salt, the structure may show the parent alone. Read-outs that look alike come from different tables or passages of the source.
Columns and labels:
[1] = system: mouse primary DRG neurons; assay: Neurite outgrowth assay of DRG neurons (image-based HCS) against paclitaxel-induced neurotoxicity; assay type: cell-based; conditions: Mus musculus, DRG neuron
Experimental: All these 19 compounds were then subjected to the neurite outgrowth assay of dorsal root ganglion (DRG) neurons paired with an image-based HCS to analyze whether they had neuroprotective potential. Quantification of neurite outgrowth under different regimens is shown in Figure 3, wherein DRG neurons incubated in 50 nM paclitaxel could cause 60% reduction in neurite outgrowth compared to the control (no drug treatment). […] Taken together, CN016 is selected as a promising lead for further development.
(§1) Primary cortical or DRG cells were fixed with 4% paraformaldehyde for 15 min following compound and paclitaxel treatment. After washing with PBS, the fixed cells were permeabilized with PBS containing 0.05% Triton X-100 for 20 min and then blocked with commercial blocking buffer (#GTX30963; GeneTex, USA) at room temperature for 1 h. Subsequently, the cortical cells were stained for the extending processes and synaptic puncta by using anti-MAP2 (#MBS502140, 1:500; Mybiosource, USA) and anti-synaptophysin (#ab32127, 1:500; Abcam, UK) overnight. DRG cells were stained for the neurite and neuron nucleus by using anti-β III tubulin (#D71G9, 1:600; Cell Signaling, USA) and anti-NeuN monoclonal antibody (#MAB377, 1:400; Millipore, USA) overnight. On the second day, the samples were washed for 30 min with wash buffer and incubated with secondary antibodies (Alexa-488, 647 1:600; Thermo Fisher, USA) and 4 μg/mL Hoechst 33258 (#94403-1ML, 1:100; Merck, USA) at room temperature for 1 h. In the initial experiments of screening the potential neuroprotective compound for CIPN, ImageXpress^Micro (IXM) high-content imaging system (Molecular Devices, USA) driven by MetaXpress software was used. Images of treated cells were automatically acquired by using a 10× objective. Twenty-one images per well were taken in each of three channels (DAPI, FITC, and Cy5) to create a whole view of the entire neural network. The integrity of the neural network was evaluated using TIF images by importing them into MetaXpress software for analysis using the module for multiparameter, such as Neurite Outgrowth, Cell Scoring, and Transfluor. Furthermore, the score of synaptogenesis was analyzed in AcuityXpress software (Molecular Devices, USA).

primary cortical neurons [2] = assay: Neurite outgrowth assay of primary cortical neurons (image-based HCS) against paclitaxel-induced neurotoxicity; assay type: cell-based, mouse; conditions: Mus musculus, Primary cortical neuron; for activity at 0.01 µM: read-out: C: Neurite outgrowth (% of control) of test compound (10 nM) + paclitaxel (1 μM); for activity at 1 µM: read-out: D: Neurite outgrowth (% of control) of test compound (1000 nM) + paclitaxel (1 μM)
Text: (§2) Herein, we wish to report that an in vitro neurite outgrowth assay of cortical neurons integrated with an image-based high-content screening (HCS) platform is used to evaluate a commercially available library of 78 minoxidil-related derivatives,[22] leading to the identification of a series of analogues able to prevent or alleviate paclitaxel-induced neurotoxicity. The project began with screening compounds with the primary culture of cortical neurons from neonatal mice. More specifically, cerebral cortex neurons cultured from P0 C57BL/6J mouse pups were incubated with a test compound (10 and 1000 nM) prior to paclitaxel (1 μM) treatment. Subsequently, both neurite outgrowth and synaptogenesis were measured to evaluate the test compounds’ neuroprotective capacity. […] This unique feature is preserved for the core-structure screening of our in-house library in the following subject. Moreover, the substituent at the C4 position appears flexible in terms of structural diversity. Collectively, CSV0A024807, the only one displaying the best neuroprotective potency on both neurite outgrowth and synaptogenesis assays, was thus elected as a potential hit compound for further development.
as §1

primary cortical neurons [3] = assay: Synaptogenesis assay of primary cortical neurons (image-based HCS) against paclitaxel-induced neurotoxicity; assay type: cell-based, mouse; conditions: for activity at 0.01 µM / activity at 1 µM: Mus musculus, Primary cortical neuron; for activity at 0.01 µM: read-out: A: Synaptogenesis (% of control) of test compound (10 nM) + paclitaxel (1 μM); for activity at 1 µM: read-out: B: Synaptogenesis (% of control) of test compound (1000 nM) + paclitaxel (1 μM)
Text: as §2, §1

[4] = Table 1, A: neurite outgrowth (% of control) of test compound 1000 nM + paclitaxel 50 nM, B: paclitaxel 50 nM alone, DRG neurons, read-out: Neuroprotection rate = (A-B)±S.E.M [%]
[5] = supplementary CSV, test compound 1000 nM, read-out: A-B (A: neurite outgrowth (% of control) of test compound (1000 nM) + paclitaxel (50 nM), B: of paclitaxel (50 nM))
[6] = Table S2, test compound 1000 nM + paclitaxel 50 nM minus paclitaxel 50 nM, read-out: Neuroprotection rate = (A-B) ± S.E.M [%]
[7] = test compound 10 nM + paclitaxel 1 μM, mean ± SE
[8] = test compound 1000 nM + paclitaxel 1 μM, mean ± SE

SMILES	activity at 0.01 µM (primary cortical neurons [2]; [7]) [%]	activity at 1 µM (primary cortical neurons [2]; [8]) [%]	activity at 0.01 µM (primary cortical neurons [3]; [7]) [%]	activity at 1 µM (primary cortical neurons [3]; [8]) [%]	further results
CC(O)Cn1cc(CNc2nc(NC3CCN(CCP(=O)(O)O)CC3)cc(N3CCOCC3)n2)nn1 (stereo not shown) [CN025, {2-[4-(2-{[1-(2-Hydroxy-propyl)-1H-[1,2,3]triazol-4-ylmethyl]-amino}-6-morpholin-4-yl-pyrimidin-4-ylamino)-piperidin-1-yl]-ethyl}-phosphonic Acid Hydrobromide Salt]					activation at 1 µM [1, 4]: 4 ± 0.63%; activation at 1 µM [1, 5]: 4%
CC(O)CCn1cc(CNc2nc(NC3CCN(CCP(=O)(O)O)CC3)cc(N3CCOCC3)n2)nn1 (stereo not shown) [CN026, {2-[4-(2-{[1-(3-Hydroxy-butyl)-1H-[1,2,3]triazol-4-ylmethyl]-amino}-6-morpholin-4-yl-pyrimidin-4-ylamino)-piperidin-1-yl]-ethyl}-phosphonic Acid Hydrobromide Salt]					activation at 1 µM [1, 4]: 11 ± 1.48%; activation at 1 µM [1, 5]: 11%
COC(=O)CCOCCCn1cc(CNc2nc(NC3CCN(CCC(=O)OC)CC3)cc(N3CCOCC3)n2)nn1 [CN011, 3-{3-[4-({4-[1-(2-Methoxycarbonyl-ethyl)-piperidin-4-ylamino]-6-morpholin-4-yl-pyrimidin-2-ylamino}-methyl)-[1,2,3]triazol-1-yl]-propoxy}-propionic Acid Methyl Ester]					activation at 1 µM [1, 6]: 4 ± 4.1%; activation at 1 µM [1, 5]: 4%
CCOP(=O)(CCN1CCC(Nc2cc(N3CCOCC3)nc(NCc3cn(CCCOCCC(=O)OC)nn3)n2)CC1)OCC [CN015, 3-(3-{4-[(4-{1-[2-(Diethoxy-phosphoryl)-ethyl]-piperidin-4-ylamino}-6-morpholin-4-yl-pyrimidin-2-ylamino)-methyl]-[1,2,3]triazol-1-yl}-propoxy)-propionic Acid Methyl Ester]					activation at 1 µM [1, 6]: 3 ± 1.11%; activation at 1 µM [1, 5]: 3%
CC(C)(O)CCn1cc(CNc2nc(NC3CCN(CCP(=O)(O)O)CC3)cc(N3CCOCC3)n2)nn1 [CN027, {2-[4-(2-{[1-(3-Hydroxy-3-methyl-butyl)-1H-[1,2,3]triazol-4-ylmethyl]-amino}-6-morpholin-4-yl-pyrimidin-4-ylamino)-piperidin-1-yl]-ethyl}-phosphonic Acid Hydrobromide Salt]					activation at 1 µM [1, 4]: 5 ± 0.93%; activation at 1 µM [1, 5]: 5%
COCCCn1cc(CNc2nc(NC3CCN(CCP(=O)(O)O)CC3)cc(N3CCOCC3)n2)nn1 [CN028, {2-[4-(2-{[1-(3-Methoxy-propyl)-1H-[1,2,3]triazol-4-ylmethyl]-amino}-6-morpholin-4-yl-pyrimidin-4-ylamino)-piperidin-1-yl]-ethyl}-phosphonic Acid Hydrobromide Salt]					activation at 1 µM [1, 4]: -2%; activation at 1 µM [1, 5]: -2%
CCN(CC)c1ccc(/C=N/Nc2cc(N3CCOCC3)nc(N3CCOCC3)n2)cc1 [CSV0A024804]	68 ± 2	66 ± 1	67 ± 8	62 ± 3	
Cc1ccc(S)c(Nc2cc(N)nc(N)n2)n1 [CSV0A0544S0]	60 ± 2	57 ± 5	63 ± 5	52 ± 8	
CCN(CC)c1cc(N/N=C/c2ccc(Cl)cc2)nc(N(CC)CC)n1 [CSV0A020149]	52 ± 2	48 ± 3	43 ± 1	36 ± 1	
O=C(CCc1ccccc1)NNc1cc(N2CCCC2)nc(N2CCCC2)n1 [CSV0C019163]					activity at 0.01 µM (primary cortical neurons [2]): 68 ± 7%; activity at 1 µM (primary cortical neurons [2]): 74 ± 1%; activity at 0.01 µM (primary cortical neurons [3]): 49 ± 4%; activity at 1 µM (primary cortical neurons [3]): 53 ± 1%
CN(C)c1cc(N/N=C/c2cccs2)nc(N(C)C)n1 [CSV0A055769]	68 ± 3	62 ± 2	83 ± 1	97 ± 8	attenuation of synaptogenesis inhibited by paclitaxel (in words) (primary cortical neurons [3]; test compound 10 and 1000 nM prior to paclitaxel 1 μM, Figure 1A): significantly attenuated
COc1ccc(/C=N/Nc2cc(N(C)C)nc(N(C)C)n2)cc1 [CSV0A034004]	54 ± 7	55 ± 4	65 ± 6	76 ± 2	
CN(C)c1cc(NNC(=O)c2ccc(C(C)(C)C)cc2)nc(N(C)C)n1 [CSV0B002001]	44 ± 3	44 ± 3	35 ± 3	35 ± 3	
CN(C)c1cc(N/N=C/c2cccc(O)c2)nc(N(C)C)n1 [CSV0A021190]	43 ± 1	50 ± 2	37 ± 1	45 ± 1	
CN(C)c1ccc(/C=N/Nc2cc(N3CCCC3)nc(N3CCCC3)n2)cc1 [CSV0A027460]	77 ± 1	63 ± 3	47 ± 1	33 ± 3	
CC(C)(C)c1ccc(C(=O)NNc2cc(N3CCOCC3)nc(N3CCOCC3)n2)cc1 [CSV0B026196]	83 ± 5	65 ± 4	36 ± 2	32 ± 1	
Oc1ccc(Br)cc1/C=N/Nc1cc(N2CCOCC2)nc(N2CCOCC2)n1 [CSV0A013030]	76 ± 5	89 ± 11	26 ± 2	26 ± 3	
Cc1ccccc1C(=O)NNc1cc(N2CCOCC2)nc(N2CCOCC2)n1 [CSV0A062712]	67 ± 10	63 ± 6	52 ± 7	51 ± 2	
Clc1ccc(/C=N/Nc2cc(N3CCCCCC3)nc(N3CCCCCC3)n2)cc1 [CSV0A027457]	62 ± 4	51 ± 4	51 ± 4	39 ± 4	
CCN(CC)c1cc(NNC(=O)CCc2ccccc2)nc(N(CC)CC)n1 [CSV0B009488]	35 ± 4	44 ± 3	38 ± 3	34 ± 3	
COc1ccccc1/C=N/Nc1cc(N2CCCCC2)nc(N2CCCCC2)n1 [CSV0A061666]	91 ± 3	89 ± 7	41 ± 1	42 ± 4	

Source: paper PMC8958505, “Discovery of Potential Neuroprotective Agents against Paclitaxel-Induced Peripheral Neuropathy” (Journal of Medicinal Chemistry, 2022)
